US6900198B2, “Synthetic catalytic free radical scavengers useful as antioxidants for prevention and therapy of disease” (Eukarion, Inc., priority 1995, dated 2005)

Experiments:
[1] = tested on: Human dermal fibroblasts (HF cells); experiment: Protection against t-butyl hydroperoxide toxicity in human fibroblasts (XTT); type: cell-based; conditions: 80 μM with 0.5 mM t-BHP
Description: Human dermal fibroblasts (HF cells) were obtained from the American type tissue Culture Collection at passage 1 and cultured and propagated in a medium (HF medium) consisting of Dulbecco's Modified Eagle's Medium with 4.5 g/l D-glucose, 10% calf serum 4 mM glutamine, 50 units/ml penicillin, and 50 μg/ml streptomycin in a 37° C. humidified incubator equilibrated with 5% CO2. Cells were used at passages 5 or 6 for experiments. For cell protection assays, HF cells were seeded at a density of about 15,000 cells per cm2 onto 96-well culture plates and allowed to grow to confluence. […] After 2 hr., the absorbance at 490 nm was measured in a BioRad (Richmond, Calif.) Model 3550 plate-reader, using a reference wavelength of 655 nm. […] Absorbance measurements for blank wells, containing HF medium and XTT reagent but no cells, were also determined. […] Fresh HF medium was then added and cell viability assessed using the XTT reagent as described above. […]
Cell protection assays were performed as described under Experimental Procedures with salen-manganese complexes administered at the indicated concentrations and t-BHP at 0.5 mM. Cell viability was assessed using the XTT reagent as described and is expressed as the absorbance at 490 nm uncorrected for blank. […]

neurons = experiment: Amyloid peptide toxicity in neurons in vitro; type: cell-based
[2] = tested on: Isolated Iron-overloaded Rat Hearts; experiment: Isolated iron-overloaded rat hearts submitted to ischemia and reperfusion
Description: Rats received an intramuscular injection of 0.25 ml of an iron-dextran solution (100 g iron hydroxide, 99 g dextran, water up to 11) every third day during a 5-week period to achieve a significant iron overload in cardiac tissue. At the end of this treatment, rats were anesthetized with sodium pentobarbital (40 mg/kg) and heparin (1,000 IU/kg) was administered via a femoral vein. Hearts were then removed and rapidly perfused through the aorta according to the technique described by Langendorff [Langendorff, O., Pflügers Arch. 61: 291, 1895] at a constant flow rate of 11 ml/minute. […] At the end of this period, systolic and diastolic ventricular pressures and heart beat rate (HR) were recorded through a pressure transducer linked to the ventricular balloon. Left Ventricular Developed Pressure (LVDP) was calculated by the difference between systolic and diastolic pressure and the product HR×LVDP was taken as an index of oxygen consumption. […] During this 15 minute reperfusion, heart rate, and diastolic and systolic pressures were monitored. Early ventricular fibrillations were analyzed 1 min. after the start of the reperfusion. […]
Mitochondria were classified into Type A (normal), Type B (swollen, unbroken), and Type C (ruptured membranes). […] The results are expressed as percentages.

[3] = tested on: endotoxin-induced ALI in pigs; experiment: Acute lung injury in endotoxemic pigs; type: in vivo; conditions: treatment begun prior to LPS infusion
Description: All pigs were pre-treated at T=−18 h with Escherichia coli 0111:B4 LPS (20 μg/kg). Pigs in the RL group (n=4) received no further treatment. […] Lung wet-to-dry weight ratio was determined post-mortem. Lung lipid peroxidation was estimated fluorometrically by measuring thiobarbituric acid reactive products in the lipid fraction of lung parenchymal tissue harvested at T=300 min.

Hippocampal slices = experiment: Anoxia in hippocampal slices, EPSP recovery; type: cell-based, Sprague-Dawley rats; conditions: C7 50 μM
From the text: Anoxia in hippocampal slices. […] A glass recording micropipet was positioned in CA1 stratum radiatum to record excitatory postsynaptic potential (EPSPs) generated by electrical stimulation of the Schaffer-commissural pathway by a bipolar stimulation electrode at a frequency of 0.033 Hz. During anoxic episodes, the oxygen supply was replaced with 100% N2 gas. N2 was supplied for 90 seconds following electrical silence after which O2 was reintroduced. Recovery of EPSPs (both slope and amplitude) was recorded for 50 minutes, at which time the final viability of the slices was determined, with viability being defined as the ability of the slice to generate a 3 mV EPSP.

For `[Cl][Mn]1[O]c2ccccc2C=NCCN=Cc2ccccc2[O]1` [Compound C7], the “reduced viability at 80 μM relative to 40 μM together with t-BHP” value [1] was “possible synergistic toxicity with t-BHP”, the “protection of neurons against amyloid peptide toxicity” value (neurons) was “protect neurons against amyloid peptide toxicity” and the “protection of hearts from ischemia/reoxygenation damage, functionally and structurally” value ([2]; C7 50 μM) was “effectively protected hearts”. For the same compound, the “Mitochondria Type B (swollen, unbroken)” value ([2]; electron microscopy after 15 minute reperfusion) was 15.2#□ %, the “effect on manifestations of LPS-induced ALI” value [3] was “prevents many of the manifestations of LPS-induced ALI” and the “protection against anoxia-induced decrease in synaptic response in CA1 (EPSP slope and amplitude)” value (Hippocampal slices) was “significant degree of protection”.
